system: H37Rv; assay: microbe, parasite or virus in culture; assay type: cell-based, M. tuberculosis; settings: 0.5 µM

Row | Compound | H37Rv % Inhibition at 500 nM [%]
1 | CN1CCCC(NC(=O)C(O)(c2ccccc2)c2ccccc2)C1 (stereo in doubt) [Compound 1032, (R)-2-Hydroxy-N-(1-methylpiperidin-3-yl)-2,2-diphenylacetamide] | 72
2 | CN1CCCC(NC(=O)[C@H](O)c2ccccc2)C1 (stereo in doubt) [Compound 1045, (R)-2-Hydroxy-N-((S)-1-methylpiperidin-3-yl)-2-phenylacetamide] | 66
3 | CN1CCC(OC(=O)C(O)c2ccccc2)CC1 (stereo in doubt) [Compound 1047, (S)-1-Methylpiperidin-4-yl 2-hydroxy-2-phenylacetate] | 68
4 | O=C(NC1CCN(Cc2ccccc2)CC1)C(O)(c1ccccc1)c1ccccc1 [Compound 1021, N-(1-Benzylpiperidin-4-yl)-2-hydroxy-2,2-diphenylacetamide] | 74

same assay, conditions: Mycobacterium tuberculosis, H37RV, THP-1, 90 h, read-out: H37Rv % Inhibition at 500 nM

Row | Compound | inhibition at 0.5 µM [%]
5 | O=C(NC1CCCN(Cc2ccccc2)C1)C(O)(c1ccccc1)c1ccccc1 (stereo in doubt) [Compound 1029, (R)-N-(1-Benzylpiperidin-3-yl)-2-hydroxy-2,2-diphenylacetamide] | 61
6 | O=C(Nc1cccnc1)C(O)c1ccccc1 (stereo in doubt) [Compound 1046, (S)-2-Hydroxy-2-phenyl-N-(pyridin-3-yl)acetamide] | 56
7 | COC(C(=O)OC1CCCN(C)C1)c1ccccc1 (stereo in doubt) [Compound 1059, (S)-(R)-1-Methylpiperidin-3-yl 2-methoxy-2-phenylacetate] | 74
8 | C[N+]12CCC(CC1)C(OC(=O)C(O)(c1ccccc1)c1ccccc1)C2 (stereo not shown) [Compound 1008, 3-(2-Hydroxy-2,2-diphenylacetoxy)-1-methylquinuclidin-1-ium] | 42
9 | O=C(NC1CCCNC1)C(O)(c1ccccc1)c1ccccc1 (stereo not shown) [Compound 1016, 2-Hydroxy-2,2-diphenyl-N-(piperidin-3-yl)acetamide] | 65
10 | O=C(NC1CCN(Cc2ccccc2)CC1)C(O)(c1ccccc1)c1ccccc1 [Compound 1017, N-(1-Benzylpiperidin-4-yl)-2-hydroxy-2,2-diphenylacetamide] | 75
11 | CN1CCCC(NC(=O)C(O)(c2ccccc2)c2ccccc2)C1 (stereo not shown) [Compound 1020, 2-Hydroxy-N-(1-methylpiperidin-3-yl)-2,2-diphenylacetamide] | 64
12 | O=C(NC1CN(Cc2ccccc2)C1)C(O)(c1ccccc1)c1ccccc1 [Compound 1022, N-(1-Benzylazetidin-3-yl)-2-hydroxy-2,2-diphenylacetamide] | 75
13 | O=C(N[C@@H]1CCCN(Cc2ccccc2)C1)C(O)(c1ccccc1)c1ccccc1 [Compound 1028, (R)-N-(1-Benzylpiperidin-3-yl)-2-hydroxy-2,2-diphenylacetamide] | 77
14 | O=C(NC1CCNCC1)C(O)(c1ccccc1)c1ccccc1 [Compound 1030, 2-Hydroxy-2,2-diphenyl-N-(piperidin-4-yl)acetamide] | 52
15 | CN1CCC[C@H](NC(=O)C(O)(c2ccccc2)c2ccccc2)C1 [Compound 1031, (S)-2-Hydroxy-N-(1-methylpiperidin-3-yl)-2,2-diphenylacetamide] | 74
16 | O=C(N[C@@H]1CCCN(Cc2ccccc2)C1)C(c1ccccc1)c1ccccc1 [Compound 1034, (R)-N-(1-Benzylpiperidin-3-yl)-2,2-diphenylacetamide] | 64
17 | O=C(N[C@H]1CCCN(Cc2ccccc2)C1)C(O)c1ccccc1 (stereo partly drawn) [Compound 1035, N-((S)-1-Benzylpiperidin-3-yl)-2-hydroxy-2-phenylacetamide] | 62
18 | CC(O)(C(=O)N[C@@H]1CCCN(Cc2ccccc2)C1)c1ccccc1 (stereo partly drawn) [Compound 1036, N-((R)-1-Benzylpiperidin-3-yl)-2 hydroxy-2-phenylpropanamide] | 58
19 | CN1CCC[C@@H](OC(=O)[C@H](O)c2ccccc2)C1 [Compound 1037, (R)-(R)-1-Methylpiperidin-3-yl 2-hydroxy-2-phenylacetate] | 40

— patent US10207993B2 (priority 2014, dated 2019)
